Measured values as given in ChEMBL document CHEMBL1201862, “PubChem BioAssay data set” (2004).
Calls of active or inactive are those of the source.

How the values were obtained:
Hexokinase HKDC1 = biological target: T1, Hexokinase HKDC1 (Homo sapiens, UniProt Q2TB90); assay: inhibition of HKDC1 glucose phosphorylation – biochemical, W721R variant, dose response (AID 504729); format: functional
T1 sequence (Q2TB90 whole entry): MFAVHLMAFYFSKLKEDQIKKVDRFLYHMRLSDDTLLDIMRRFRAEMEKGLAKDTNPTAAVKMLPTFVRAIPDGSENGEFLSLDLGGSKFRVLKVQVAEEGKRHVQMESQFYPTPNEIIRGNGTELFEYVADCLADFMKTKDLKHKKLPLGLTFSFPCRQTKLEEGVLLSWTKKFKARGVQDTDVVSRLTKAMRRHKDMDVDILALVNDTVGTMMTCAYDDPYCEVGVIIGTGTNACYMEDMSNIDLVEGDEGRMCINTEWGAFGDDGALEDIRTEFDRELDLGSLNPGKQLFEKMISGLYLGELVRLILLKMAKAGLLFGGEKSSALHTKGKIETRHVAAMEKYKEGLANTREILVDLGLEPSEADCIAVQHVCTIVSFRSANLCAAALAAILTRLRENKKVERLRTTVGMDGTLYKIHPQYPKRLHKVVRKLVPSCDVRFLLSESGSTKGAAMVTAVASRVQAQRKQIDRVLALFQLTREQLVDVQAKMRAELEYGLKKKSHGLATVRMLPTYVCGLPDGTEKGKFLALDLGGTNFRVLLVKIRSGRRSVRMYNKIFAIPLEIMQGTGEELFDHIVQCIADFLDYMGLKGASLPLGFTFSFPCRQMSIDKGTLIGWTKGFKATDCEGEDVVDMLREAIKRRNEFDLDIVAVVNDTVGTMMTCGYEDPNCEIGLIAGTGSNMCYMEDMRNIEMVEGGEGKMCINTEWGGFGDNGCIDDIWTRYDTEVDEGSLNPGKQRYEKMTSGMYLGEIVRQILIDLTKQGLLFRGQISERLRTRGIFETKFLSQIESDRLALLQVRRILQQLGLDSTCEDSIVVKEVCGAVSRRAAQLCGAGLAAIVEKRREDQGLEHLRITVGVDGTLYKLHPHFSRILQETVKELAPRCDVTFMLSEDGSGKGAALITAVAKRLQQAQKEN

[1] = biological target: T2, RNA-binding protein pos-1 (Caenorhabditis elegans, UniProt G5EF15); assay: disruptors of C. elegans POS-1 RNA interaction – biochemical, fluorescence polarization, dose response (AID 1964);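 further: purified POS-1 fused to maltose binding protein made in E. coli; potency of compounds blocking POS-1 binding to fluorescent RNA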
T2 sequence (G5EF15 whole entry): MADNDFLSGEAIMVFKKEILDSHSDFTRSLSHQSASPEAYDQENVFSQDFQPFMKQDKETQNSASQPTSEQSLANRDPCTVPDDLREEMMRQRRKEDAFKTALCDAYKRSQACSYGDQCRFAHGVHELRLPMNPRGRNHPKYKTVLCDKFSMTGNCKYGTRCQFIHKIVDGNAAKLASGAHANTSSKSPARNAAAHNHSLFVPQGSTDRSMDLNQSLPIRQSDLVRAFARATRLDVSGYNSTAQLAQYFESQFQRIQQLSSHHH

Caspase-3 = biological target: T3, Caspase-3 (Homo sapiens, UniProt P42574); assay: inhibition of recombinant caspase-3 activity – biochemical, luminescence, set 2, selectivity assay for SENP protease inhibitor project, SAR follow-up (AID 588599); format: functional
T3 sequence (P42574 whole entry): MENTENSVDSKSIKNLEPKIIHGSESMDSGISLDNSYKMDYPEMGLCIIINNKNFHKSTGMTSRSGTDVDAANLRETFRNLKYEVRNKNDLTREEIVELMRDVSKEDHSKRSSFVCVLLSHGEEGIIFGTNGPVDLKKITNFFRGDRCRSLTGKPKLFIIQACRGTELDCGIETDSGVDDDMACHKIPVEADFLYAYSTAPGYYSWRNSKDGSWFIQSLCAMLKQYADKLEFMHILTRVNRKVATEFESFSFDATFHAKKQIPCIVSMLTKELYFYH

[2] = biological target: T4, Oxysterols receptor LXR-beta (Homo sapiens, UniProt P55055); assay: LXR agonists, Gal4 luciferase reporter, dose response, counter-screen for ssDAF-12 agonist project, cell-based, luminescence, HEK293, S. stercoralis campaign (AID 720737); format: functional; details: read-out: IC50 (the source's name)
T4 sequence (P55055 whole entry): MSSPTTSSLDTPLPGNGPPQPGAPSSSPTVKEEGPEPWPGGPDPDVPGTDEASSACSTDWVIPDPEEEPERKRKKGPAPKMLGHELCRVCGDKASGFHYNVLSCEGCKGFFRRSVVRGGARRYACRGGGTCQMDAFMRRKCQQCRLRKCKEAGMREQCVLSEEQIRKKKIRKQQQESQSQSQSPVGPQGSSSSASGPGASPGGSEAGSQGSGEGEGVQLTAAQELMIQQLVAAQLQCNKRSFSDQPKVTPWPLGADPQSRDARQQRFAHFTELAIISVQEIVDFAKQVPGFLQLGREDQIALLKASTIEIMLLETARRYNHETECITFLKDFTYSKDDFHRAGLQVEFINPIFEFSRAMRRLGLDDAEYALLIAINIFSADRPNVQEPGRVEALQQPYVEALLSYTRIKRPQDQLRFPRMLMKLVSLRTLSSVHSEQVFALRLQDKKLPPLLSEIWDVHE

[3] = viability of PTEN-deleted HCT116 cells – cell-based, HCT116 PTEN knockout, dose response (AID 1047); format: functional;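 further: HCT116 colon tumor cells with PTEN knocked out; cells exposed to compound for 60 hours before readout; potency for loss of cell viability measured by luminescence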
BJ = assay: cells; format: functional, cell-based; details: Homo sapiens
[4] = DRD fibroblast viability loss – cell-based, non-viral oncogenic, luminescence, dose response (AID 1934); format: functional; details: Homo sapiens

In the case of `O=C(O)CSc1cc(NS(=O)(=O)c2ccc(Cl)cc2)c2ccccc2c1O`, the IC50 (Hexokinase HKDC1) is reported as 4.67 µM (active) and the EC50 [1] is reported as 36.8 µM (active).

With `Oc1ccccc1/C=C/c1noc(-c2ccccc2O)n1` the IC50 (Caspase-3) was > 99 µM (inactive) and the EC50 [2] was > 67.6 µM (inactive).

In the case of `Cc1nn(-c2ccccc2)c(Cl)c1CN(C(=O)CCl)c1ccc(Cl)cc1`, the EC50 [3] is reported as 4.07 µM (active), the EC50 (BJ) is reported as 2.82 µM (inconclusive) and the EC50 [4] is reported as 1.92 µM (active).
